The values below are quoted from earlier work in patent EP1227812B1 (SCHERING CORPORATION, priority 1999, dated 2001).

The conditions of the data set: eight subjects tested, topical azatadine.

With `CN1CCC(=C2c3ccccc3CCc3cccnc32)CC1` [Azatadine, azatadine], the drowsiness entry is “drowsiness in one of the eight subjects tested”.
